Measurements as given in ChEMBL document CHEMBL1909046, “DrugMatrix in vitro pharmacology data”.

How the values were obtained:
Caspase-1 = biological target: T1, Caspase-1 (Homo sapiens, UniProt P29466); design: species or system Escherichia coli;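 also: Caspase-1 enzyme inhibition assay with a peptide substrate; in other assays of this panel Not Active means under 50% inhibition at 10 µM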
T1 sequence (P29466 whole entry): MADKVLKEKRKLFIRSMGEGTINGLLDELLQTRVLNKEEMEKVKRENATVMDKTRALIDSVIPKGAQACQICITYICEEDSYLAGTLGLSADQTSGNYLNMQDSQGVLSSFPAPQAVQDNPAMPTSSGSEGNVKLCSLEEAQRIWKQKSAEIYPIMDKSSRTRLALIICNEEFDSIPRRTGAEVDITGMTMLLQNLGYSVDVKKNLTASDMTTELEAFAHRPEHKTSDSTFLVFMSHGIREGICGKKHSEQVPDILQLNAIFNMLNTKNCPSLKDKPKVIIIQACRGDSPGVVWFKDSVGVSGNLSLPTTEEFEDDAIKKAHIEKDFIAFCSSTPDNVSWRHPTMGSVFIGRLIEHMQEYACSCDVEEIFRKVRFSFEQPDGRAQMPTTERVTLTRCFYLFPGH

[1] = DRUGMATRIX: Platelet-Derived Growth Factor (PDGF) radioligand binding (ligand: [125I] PDGF); type: cell-based; conditions: nih3t3; Not Active = under 50% inhibition at 10 µM
[2] = DRUGMATRIX: Glutamate, NMDA, Agonism radioligand binding (ligand: [3H] CGP-39653); type: cell membranes, Rattus norvegicus, Wistar, Cerebral cortex, Membrane; conditions: Not Active = under 50% inhibition at 10 µM
[3] = DRUGMATRIX: Imidazoline I2, Central radioligand binding (ligand: [3H] Idazoxan); type: cell membranes, Rattus norvegicus, Wistar, Cerebral cortex, Membrane; conditions: Not Active = under 50% inhibition at 10 µM
[4] = DRUGMATRIX: ATPase, Na+/K+ enzyme inhibition (substrate: ATP); type: tissue-based, Sus scrofa, Heart; conditions: Not Active = under 50% inhibition at 10 µM
Melanocortin receptor 4 = Melanocortin receptor 4 (Homo sapiens, UniProt P32245); type: cell membranes, Membrane; conditions: hek293; also: in other assays of this panel Not Active means under 50% inhibition at 10 µM
[5] = biological target: T2, Cysteinyl leukotriene receptor 1 (Homo sapiens, UniProt Q9Y271); type: cell membranes, Membrane; conditions: cho-k1; also: in other assays of this panel Not Active means under 50% inhibition at 10 µM
T2 sequence (Q9Y271 whole entry): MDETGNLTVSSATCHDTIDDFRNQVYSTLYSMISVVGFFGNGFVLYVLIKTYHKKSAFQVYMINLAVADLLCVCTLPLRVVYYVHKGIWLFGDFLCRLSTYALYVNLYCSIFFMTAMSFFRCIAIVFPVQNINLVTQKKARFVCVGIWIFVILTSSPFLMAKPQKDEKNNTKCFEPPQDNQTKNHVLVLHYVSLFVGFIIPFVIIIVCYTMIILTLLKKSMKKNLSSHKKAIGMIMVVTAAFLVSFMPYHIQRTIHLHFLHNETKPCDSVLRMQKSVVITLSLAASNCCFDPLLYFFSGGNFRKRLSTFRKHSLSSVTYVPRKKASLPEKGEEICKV

[6] = biological target: Mitogen-activated protein kinase 1 (Homo sapiens, UniProt P28482); experiment: DRUGMATRIX: Protein Serine/Threonine Kinase, ERK2 enzyme inhibition (substrate: Myelin Basic Protein); design: species or system Escherichia coli; conditions: Not Active = under 50% inhibition at 10 µM
Mitogen-activated protein kinase 1, sequence (P28482 whole entry): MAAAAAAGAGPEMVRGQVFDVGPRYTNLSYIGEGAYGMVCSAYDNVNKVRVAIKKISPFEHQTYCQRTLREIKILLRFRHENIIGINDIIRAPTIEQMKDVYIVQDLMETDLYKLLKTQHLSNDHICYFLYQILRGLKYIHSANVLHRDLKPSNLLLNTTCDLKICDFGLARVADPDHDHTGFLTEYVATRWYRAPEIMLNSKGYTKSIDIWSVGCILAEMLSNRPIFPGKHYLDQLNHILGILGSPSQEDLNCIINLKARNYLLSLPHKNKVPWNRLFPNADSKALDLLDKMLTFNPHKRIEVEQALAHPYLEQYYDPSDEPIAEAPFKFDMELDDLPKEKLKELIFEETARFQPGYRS

Melanocortin receptor 4, sequence (P32245 whole entry): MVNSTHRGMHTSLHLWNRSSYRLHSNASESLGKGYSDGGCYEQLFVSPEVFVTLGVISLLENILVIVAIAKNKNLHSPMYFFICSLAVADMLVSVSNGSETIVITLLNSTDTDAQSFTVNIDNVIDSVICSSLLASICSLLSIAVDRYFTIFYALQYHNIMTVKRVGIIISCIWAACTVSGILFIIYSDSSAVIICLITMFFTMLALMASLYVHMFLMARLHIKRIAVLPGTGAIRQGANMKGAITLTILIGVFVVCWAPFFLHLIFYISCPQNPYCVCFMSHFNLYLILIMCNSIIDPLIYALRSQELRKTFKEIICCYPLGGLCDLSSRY

| Compound | IC50 (Caspase-1) | IC50 [1] | Ki [1] | IC50 [2] | Ki [2] | IC50 [3] | Ki [3] | IC50 [4] | Ki [4] | IC50 (Melanocortin receptor 4) | IC50 [5] | IC50 [6] | IC50 ([6]; read-out: IC50) | IC50 ([3]; read-out: IC50) | Ki ([3]; read-out: Ki) |
| --- | --- | --- | --- | --- | --- | --- | --- | --- | --- | --- | --- | --- | --- | --- | --- |
| Nn1nnc2ccccc21 | Not Active | Not Active | Not Active | Not Active | Not Active | Not Active | Not Active | Not Active | Not Active | Not Active | Not Active | Not Active |  |  |  |
| CC[C@]1(O)CC[C@H]2[C@@H]3CCC4=CCCC[C@@H]4[C@H]3CC[C@@]21C | Not Active | Not Active | Not Active | Not Active | Not Active | Not Active | Not Active | Not Active | Not Active | Not Active | Not Active | Not Active |  |  |  |
| N[C@@H](Cc1ccc(F)cc1)C(=O)O | Not Active | Not Active | Not Active | Not Active | Not Active | Not Active | Not Active | Not Active | Not Active | Not Active | Not Active | Not Active |  |  |  |
| CCOC(=O)[C@H](CCc1ccccc1)N[C@@H](C)C(=O)N1Cc2ccccc2C[C@H]1C(=O)O | Not Active | Not Active | Not Active | Not Active | Not Active | Not Active | Not Active | Not Active | Not Active | Not Active | Not Active | Not Active |  |  |  |
| O=C(c1ccccc1Cl)N1CCC(Cc2ccccc2)CC1 | Not Active | Not Active | Not Active | Not Active | Not Active | Not Active | Not Active | Not Active | Not Active | Not Active | Not Active | Not Active |  |  |  |
| CCOC(=O)[C@H](CCc1ccccc1)N[C@@H](C)C(=O)N1CCC[C@H]1C(=O)O | Not Active | Not Active | Not Active | Not Active | Not Active | Not Active | Not Active | Not Active | Not Active | Not Active | Not Active | Not Active |  |  |  |
| Clc1cc2c(cc1Cl)Oc1cc(Cl)c(Cl)cc1O2 [2,3,7,8-TETRACHLORODIBENZO-P-DIOXIN] | Not Active | Not Active | Not Active | Not Active | Not Active | Not Active | Not Active | Not Active | Not Active | Not Active | Not Active | Not Active |  |  |  |
| C=C1/C(=C\C=C2/CCC[C@]3(C)[C@@H]([C@H](C)CCCC(C)C)CC[C@@H]23)C[C@@H](O)C[C@@H]1O [ALFACALCIDOL] | Not Active | Not Active | Not Active | Not Active | Not Active | Not Active | Not Active | Not Active | Not Active | Not Active | Not Active | Not Active |  |  |  |
| CCCCCC[C@H]1C(=O)O[C@H](C)[C@H](NC(=O)c2cccc(NC=O)c2O)C(=O)O[C@@H](C)[C@@H]1OC(=O)CC(C)C [ANTIMYCIN A] | Not Active | Not Active | Not Active | Not Active | Not Active | Not Active | Not Active | Not Active | Not Active | Not Active | Not Active |  | 2120 nM |  |  |
| C[C@@H]1CC[C@H]2[C@@H](C)C(=O)O[C@@H]3O[C@@]4(C)CC[C@@H]1[C@]32OO4 [ARTEMISININ] | Not Active | Not Active | Not Active | Not Active | Not Active | Not Active | Not Active | Not Active | Not Active | Not Active | Not Active | Not Active |  |  |  |
| CO[C@H]1[C@@H](O)[C@H](N)[C@@H](O[C@H]2O[C@H]([C@H](C)N)CC[C@H]2N)[C@H](O)[C@@H]1N(C)C(=O)CN [ASTROMICIN] | Not Active | Not Active | Not Active | Not Active | Not Active | Not Active | Not Active | Not Active | Not Active | Not Active | Not Active | Not Active |  |  |  |
| [N-]=[N+]=CC(=O)OC[C@H](N)C(=O)O [AZASERINE] | Not Active | Not Active | Not Active | Not Active | Not Active | Not Active | Not Active | Not Active | Not Active | Not Active | Not Active | Not Active |  |  |  |
| CC[C@H]1OC(=O)[C@H](C)[C@@H](O[C@H]2C[C@@](C)(OC)[C@@H](O)[C@H](C)O2)[C@H](C)[C@@H](O[C@@H]2O[C@H](C)C[C@H](N(C)C)[C@H]2O)[C@](C)(O)C[C@@H](C)CN(C)[C@H](C)[C@@H](O)[C@]1(C)O [AZITHROMYCIN] | Not Active | Not Active | Not Active | Not Active | Not Active | Not Active | Not Active | Not Active | Not Active | Not Active | Not Active | Not Active |  |  |  |
| CC(C)(C)c1ccc(S(=O)(=O)/C=C/C#N)cc1 [BAY-11-7085] | Not Active | Not Active | Not Active | Not Active | Not Active | Not Active | Not Active | Not Active | Not Active | Not Active | Not Active | Not Active |  |  |  |
| CCc1oc2ccccc2c1C(=O)c1cc(Br)c(O)c(Br)c1 [BENZBROMARONE] | Not Active | Not Active | Not Active | Not Active | Not Active | Not Active | Not Active | Not Active | Not Active | Not Active | Not Active |  | 1950 nM |  |  |
| O=c1cc(-c2ccccc2)oc2ccc3ccccc3c12 [BETA-NAPHTHOFLAVONE] | Not Active | Not Active | Not Active | Not Active | Not Active | Not Active | Not Active | Not Active | Not Active | Not Active | Not Active | Not Active |  |  |  |
| CC(C)C[C@H]1C(=O)N2CCC[C@H]2[C@]2(O)O[C@](NC(=O)[C@@H]3C=C4c5cccc6[nH]c(Br)c(c56)C[C@H]4N(C)C3)(C(C)C)C(=O)N12 [BROMOCRIPTINE] | Not Active | Not Active | Not Active | Not Active | Not Active |  |  | Not Active | Not Active | Not Active | Not Active | Not Active |  | 53 nM | 35 nM |
| CS(=O)(=O)OCCCCOS(C)(=O)=O [BUSULFAN] | Not Active | Not Active | Not Active | Not Active | Not Active | Not Active | Not Active | Not Active | Not Active | Not Active | Not Active | Not Active |  |  |  |
| O=C(/C=C/c1ccc(O)c(O)c1)OCCc1ccccc1 [CAFFEIC ACID PHENETHYL ESTER] | Not Active | Not Active | Not Active | Not Active | Not Active | Not Active | Not Active | Not Active | Not Active | Not Active | Not Active |  | 686 nM |  |  |
| Cc1c(N(C)CS(=O)(=O)[O-])c(=O)n(-c2ccccc2)n1C.[Na+] [DIPYRONE SODIUM] | Not Active | Not Active | Not Active | Not Active | Not Active | Not Active | Not Active | Not Active | Not Active | Not Active | Not Active |  |  |  |  |
| Cc1cnc(C(=O)NCCc2ccc(S(=O)(=O)NC(=O)NC3CCCCC3)cc2)cn1 [GLIPIZIDE] |  | Not Active | Not Active | Not Active | Not Active | Not Active | Not Active | Not Active | Not Active | Not Active | Not Active |  |  |  |  |
